Measured values: patent US8722714B2, “Oxazolidine derivatives as NMDA antagonists” (The Honk Kong University of Science and Technology, priority 2008, dated 2014)

Key:
[1] = system: rat primary cortical neurons; experiment: Immunocytochemical analysis of neurons after NMDA insult; type: cell-based; details: compound 10 μg/ml; beta-tubulin type III and DAPI stain
Procedure: Primary cortical and hippocampal neurons were prepared from embryonic day 18 (E18) Sprague-Dawley rats. Neurons were plated on 35-mm dishes (NUNC) at a density of 1×10^6 cells per plate using Neurobasal medium (Invitrogen) supplemented with 2% B27 (Invitrogen). Neurons at 11-12 days in vitro (DIV) were subjected to treatment with the test compounds. Neurons were pretreated with the test compound for 2 hours prior to NMDA treatment. 0.1 μM (+)-MK-801 Hydrogen Maleate (Sigma) was added as a positive control. Briefly, the neurons were rinsed with Locke's solution (5 mM potassium chloride, 128 mM sodium chloride, 2.7 mM calcium chloride, 1 mM di-sodium hydrogen orthophosphate, 5 mM HEPES and 10 mM glucose in Milli-Q water) without Mg^2+, and incubated with addition of glycine (10 μM) for 15 minutes. After the incubation, the neurons were co-treated with the test compound (dissolved in Locke's plus glycine solution) and NMDA (20 μM; Sigma) for 20 minutes. Neurons were rinsed with Locke's plus Mg^2+ and replaced with fresh growth medium. […] Neurons were then analyzed by a fluorescence microscope using a 40× objective (DMRA; Leica). […]
LC-02 (10 μg/mL) protects embryonic rat primary cortical neurons against NMDA excitotoxicity. Neurites were immunostained with beta-tubulin type III antibody and detected with FITC-conjugated antibody. […]

Adenosine A2A = biological target: T1, Adenosine A2A (Homo sapiens, UniProt P29274); experiment: Ligand binding assay (High-throughput Profile, CEREP)
T1 construct: CEREP, France (contract assay, High-throughput Profile)
T1 sequence (P29274 whole entry): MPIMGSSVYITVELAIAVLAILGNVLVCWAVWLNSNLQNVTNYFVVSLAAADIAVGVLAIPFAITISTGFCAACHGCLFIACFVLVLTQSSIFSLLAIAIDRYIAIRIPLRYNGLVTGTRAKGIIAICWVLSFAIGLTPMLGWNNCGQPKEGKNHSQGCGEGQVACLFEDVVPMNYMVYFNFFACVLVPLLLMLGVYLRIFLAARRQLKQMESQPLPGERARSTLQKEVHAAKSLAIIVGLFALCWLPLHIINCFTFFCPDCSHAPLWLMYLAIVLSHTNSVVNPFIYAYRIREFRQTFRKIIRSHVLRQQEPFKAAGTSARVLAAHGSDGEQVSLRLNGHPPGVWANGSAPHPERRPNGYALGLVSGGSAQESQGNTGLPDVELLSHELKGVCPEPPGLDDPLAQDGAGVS
Procedure: (§1) To determine the pharmacological profile and potential targets of LC-02, 80 binding assays were performed (High-throughput Profile, CEREP, France). LC-02 was evaluated at a single concentration in these specific binding assays. […] A cutoff of 25% is considered as a moderate effect.
(§2) Compound LC-02 (10 μM) was subjected to ligand binding assays with human A3 and rat kappa receptor overexpressing cells. Results are expressed as a percent of control specific agonist response [100-(measured specific response/control specific agonist response)×100] obtained in the presence of LC-02.

Opioid (mu) = biological target: T2, Opioid (mu) (Homo sapiens, UniProt P35372); experiment: as above
T2 construct: CEREP, France (contract assay, High-throughput Profile)
T2 sequence (P35372 whole entry): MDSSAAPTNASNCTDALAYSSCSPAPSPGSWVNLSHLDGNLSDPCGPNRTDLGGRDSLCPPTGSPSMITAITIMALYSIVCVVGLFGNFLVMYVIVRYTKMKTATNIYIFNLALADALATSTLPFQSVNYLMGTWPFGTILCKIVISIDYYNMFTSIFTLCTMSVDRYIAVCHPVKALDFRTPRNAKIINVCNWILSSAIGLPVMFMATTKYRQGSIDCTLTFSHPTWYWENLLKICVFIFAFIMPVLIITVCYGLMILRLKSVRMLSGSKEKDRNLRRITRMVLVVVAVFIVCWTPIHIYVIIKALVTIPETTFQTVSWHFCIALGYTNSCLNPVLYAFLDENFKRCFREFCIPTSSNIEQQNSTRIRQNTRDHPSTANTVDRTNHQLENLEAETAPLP
Procedure: as §1, §2

Opioid (delta) = biological target: T3, Opioid (delta) (Homo sapiens, UniProt P41143); experiment: as above
T3 construct: CEREP, France (contract assay, High-throughput Profile)
T3 sequence (P41143 whole entry): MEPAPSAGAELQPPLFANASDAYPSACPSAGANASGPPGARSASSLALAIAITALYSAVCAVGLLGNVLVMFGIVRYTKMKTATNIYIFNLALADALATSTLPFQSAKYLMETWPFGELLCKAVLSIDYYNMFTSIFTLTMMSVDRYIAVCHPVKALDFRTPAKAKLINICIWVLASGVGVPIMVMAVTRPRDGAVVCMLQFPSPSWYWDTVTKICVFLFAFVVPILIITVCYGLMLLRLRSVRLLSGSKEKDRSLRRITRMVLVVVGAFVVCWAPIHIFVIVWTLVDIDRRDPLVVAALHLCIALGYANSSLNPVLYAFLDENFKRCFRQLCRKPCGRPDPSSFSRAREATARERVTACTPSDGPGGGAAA
Procedure: as §1, §2

Adenosine A1 = biological target: T4, Adenosine A1 (Homo sapiens, UniProt P30542); experiment: as above
T4 construct: CEREP, France (contract assay, High-throughput Profile)
T4 sequence (P30542 1-326): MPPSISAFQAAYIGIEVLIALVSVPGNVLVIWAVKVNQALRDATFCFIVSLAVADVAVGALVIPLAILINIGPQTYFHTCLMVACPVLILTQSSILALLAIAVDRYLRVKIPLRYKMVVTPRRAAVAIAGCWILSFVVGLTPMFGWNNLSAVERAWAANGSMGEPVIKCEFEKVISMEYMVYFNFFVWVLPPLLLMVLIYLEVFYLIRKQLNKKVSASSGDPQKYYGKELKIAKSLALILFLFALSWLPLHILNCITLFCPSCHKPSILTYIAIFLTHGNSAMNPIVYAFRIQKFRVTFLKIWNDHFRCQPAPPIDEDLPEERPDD
Procedure: as §1, §2

CC[C@H]1N[C@@H](CC(C)C)C(CC)(CC)O1 [LC-02]
protection against NMDA excitotoxicity and apoptosis (immunostaining) [1]: protected the cells from excitotoxicity and the resulting apoptosis at a level similar to control cells
inhibition at 10 µM (Adenosine A2A): 6%
inhibition at 10 µM (Opioid (mu)): 14%
inhibition at 10 µM (Opioid (delta)): 18%
inhibition at 10 µM (Adenosine A1): 5%
